According to patent US11130740B2, “Substituted 2,3-dihydro-1H-indene analogs and methods using same” (Arbutus Biopharma Corporation, priority 2017, dated 2021):

Each compound was assayed against PD-L1 His protein / PD-1 Fc protein (Homo sapiens (Human), UniProt Q9NZQ7) (assay: HTRF assay (PD-1/PD-L1 interaction)). Details: PD-L1 His 6 nM, PD-1 Fc 6 nM; inhibitors diluted 3-fold from 20 μM.
Assay type: binding
Procedure: PD-L1 His protein was prepared and added at the final concentration of 6 nM in the White opaque 384 well plate (Corning cat #3824BC). PD-L1 small molecule inhibitors were diluted by 3-fold starting from 20 μM and a final concentration of 0.001 μM and added to the well. PD-1 Fc protein was added at the final concentration of 6 nM. PD-L1 His protein, PD-L1 small molecule inhibitors, and PD1 Fc proteins were added to the well in this order, with each 5 μl volume, and were incubated for 15 minutes at room temperature. PAb anti-Human IgG-XL665 (Cisbio, cat #61HFCXLA) and Mab anti-6HIS Tb cryptate Gold (Cisbio, cat #61HI2TLA) were mixed at 6.7 nM and 0.35 nM respectively, and total 5 μl volume of mixture was added to the well and incubated at room temperature for 1 hour. The plate was read using PerkinElmer Envision plate reader and data was analyzed by Prism 6 software.

PD-L1 His protein / PD-1 Fc protein, sequence (Q9NZQ7 19-238): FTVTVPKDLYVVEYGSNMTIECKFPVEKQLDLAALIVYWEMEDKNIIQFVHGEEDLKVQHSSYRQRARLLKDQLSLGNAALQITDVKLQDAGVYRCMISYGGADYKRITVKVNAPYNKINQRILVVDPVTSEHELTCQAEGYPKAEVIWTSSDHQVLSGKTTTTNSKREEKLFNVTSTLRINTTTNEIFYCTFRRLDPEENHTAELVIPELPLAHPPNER

Q: With `CC(=O)NCCN[C@H]1c2ccc(OCc3cccc(-c4ccccc4)c3C)cc2C[C@@H]1O` [Compound 10A_2, N-(2-(((1S,2S)-2-hydroxy-5-((2-methyl-[1,1′-biphenyl]-3-yl)methoxy)-2,3-dihydro-1H-inden-1-yl)amino)ethyl)acetamide] as the compound, how does the IC50 read?
A: Its IC50 is 204 nM.

Q: How did the IC50 turn out when `CC(=O)NCCN[C@@H]1c2ccc(OCc3cccc(-c4ccccc4)c3C)cc2C[C@H]1O` [Compound 10A_2_1, N-(2-(((1R,2R)-2-hydroxy-5-((2-methyl-[1,1′-biphenyl]-3-yl)methoxy)-2,3-dihydro-1H-inden-1-yl)amino)ethyl)acetamide] was run?
A: Its IC50 is 5000 nM.

Q: `CC(=O)NCCN[C@H]1c2ccc(OCc3cccc(-c4ccccc4)c3C)cc2C[C@@H]1O` [Compound 10A_2_2, N-(2-(((1S,2S)-2-hydroxy-5-((2-methyl-[1,1′-biphenyl]-3-yl)methoxy)-2,3-dihydro-1H-inden-1-yl)amino)ethyl)acetamide] was tested. Which IC50 did it give?
A: Its IC50 is 170 nM.

Q: `CC(=O)NCCN[C@@H]1c2ccc(OCc3cccc(-c4ccccc4)c3C)cc2C[C@@H]1O` [Compound 10A_l, N-(2-(((1R,2S)-2-hydroxy-5-((2-methyl-[1,1′-biphenyl]-3-yl)methoxy)-2,3-dihydro-1H-inden-1-yl)amino)ethyl)acetamide] was tested. Which IC50 did it give?
A: The IC50 was 1080 nM.

Q: With `CC(=O)NCCN[C@H]1c2ccc(OCc3cccc(-c4ccccc4)c3C)cc2C[C@H]1O` [Compound 10A_l_1, N-(2-(((1S,2R)-2-hydroxy-5-((2-methyl-[1,1′-biphenyl]-3-yl)methoxy)-2,3-dihydro-1H-inden-1-yl)amino)ethyl)acetamide] as the compound, how does the IC50 read?
A: Its IC50 is 863 nM.

Q: With `CC(=O)NCCN[C@@H]1c2ccc(OCc3cccc(-c4ccccc4)c3C)cc2C[C@@H]1O` [Compound 10A_l_2, N-(2-(((1R,2S)-2-hydroxy-5-((2-methyl-[1,1′-biphenyl]-3-yl)methoxy)-2,3-dihydro-1H-inden-1-yl)amino)ethyl)acetamide] as the compound, how does the IC50 read?
A: Its IC50 is 5090 nM.

Q: Which IC50 does the source give for `CC(=O)NCCN[C@@H]1c2ccc(OCc3cccc(-c4ccc5c(c4)OCCO5)c3C)cc2C[C@@H]1O` [Compound 10B_1, N-(2-(((1R,2S)-5-((3-(2,3-dihydrobenzo[b][1,4]dioxin-6-yl)-2-methylbenzyl)oxy)-2-hydroxy-2,3-dihydro-1H-inden-1-yl)amino)ethyl)acetamide] here?
A: The IC50 was 3140 nM.

Q: With `Cc1c(COc2ccc3c(c2)C[C@H](O)[C@H]3NCCS(C)(=O)=O)cccc1-c1ccccc1` [Compound 10C_2, (1S,2S)-5-((2-methyl-[1,1′-biphenyl]-3-yl)methoxy)-1-((2-(methylsulfonyl)ethyl)amino)-2,3-dihydro-1H-inden-2-ol] as the compound, how does the IC50 read?
A: The IC50 was greater than 20000 nM.

Q: For `Cc1c(COc2ccc3c(c2)C[C@H](O)[C@@H]3NCCS(C)(=O)=O)cccc1-c1ccccc1` [Compound 10C_l, (1R,2S)-5-((2-methyl-[1,1′-biphenyl]-3-yl)methoxy)-1-((2-(methylsulfonyl)ethyl)amino)-2,3-dihydro-1H-inden-2-ol], which IC50 is on record?
A: Its IC50 is greater than 20000 nM.

Q: For `Cc1c(COc2ccc3c(c2)C[C@H](O)C3NCCN2CCN(C)CC2)cccc1-c1ccccc1` (stereo partly drawn) [Compound 10D, (2S)-5-((2-methyl-[1,1′-biphenyl]-3-yl)methoxy)-1-((2-(4-methylpiperazin-1-yl)ethyl)amino)-2,3-dihydro-1H-inden-2-ol], which IC50 is on record?
A: The IC50 was 5150 nM.

Q: For `Cc1c(COc2ccc3c(c2)C[C@H](O)[C@@H]3NCCN2CCOCC2)cccc1-c1ccccc1` [Compound 10E_1, (1R,2S)-5-((2-methyl-[1,1′-biphenyl]-3-yl)methoxy)-1-((2-morpholinoethyl)amino)-2,3-dihydro-1H-inden-2-ol], which IC50 is on record?
A: The IC50 was 7780 nM.

Q: How did the IC50 turn out when `Cc1c(COc2ccc3c(c2)C[C@H](O)[C@H]3NCCN2CCOCC2)cccc1-c1ccccc1` [Compound 10E_2, (1S,2S)-5-((2-methyl-[1,1′-biphenyl]-3-yl)methoxy)-1-((2-morpholinoethyl)amino)-2,3-dihydro-1H-inden-2-ol] was run?
A: The IC50 was 1080 nM.

Q: With `Cc1c(COc2ccc3c(c2)C[C@H](O)[C@@H]3NCCO)cccc1-c1ccccc1` [Compound 10F_1, (1R,2S)-1-((2-hydroxyethyl)amino)-5-((2-methyl-[1,1′-biphenyl]-3-yl)methoxy)-2,3-dihydro-1H-inden-2-ol] as the compound, how does the IC50 read?
A: Its IC50 is 1320 nM.

Q: How did the IC50 turn out when `Cc1c(COc2ccc3c(c2)C[C@H](O)[C@H]3NCCO)cccc1-c1ccccc1` [Compound 10F_2, (1S,2S)-1-((2-hydroxyethyl)amino)-5-((2-methyl-[1,1′-biphenyl]-3-yl)methoxy)-2,3-dihydro-1H-inden-2-ol] was run?
A: The IC50 was 1170 nM.

Q: `CC(=O)NCCNC1COc2cc(OCc3cccc(-c4ccccc4)c3C)ccc21` (stereo not drawn) [Compound 16A, N-(2-((6-((2-methyl-[1,1′-biphenyl]-3-yl)methoxy)-2,3-dihydrobenzofuran-3-yl)amino)ethyl)acetamide] was tested. Which IC50 did it give?
A: The IC50 was 3600 nM.

Q: How did the IC50 turn out when `CC(=O)NCCNC1COc2cc(OCc3cccc(-c4ccc5c(c4)OCCO5)c3C)ccc21` (stereo not drawn) [Compound 16B, N-(2-((6-((3-(2,3-dihydrobenzo[b][1,4]dioxin-6-yl)-2-methylbenzyl)oxy)-2,3-dihydrobenzofuran-3-yl)amino)ethyl)acetamide] was run?
A: The IC50 was 3800 nM.

Q: For `CC(=O)NCCNC1CCc2cc(OCc3cccc(-c4ccccc4)c3C)ccc21` (stereo not drawn) [Compound 16C, N-(2-((5-((2-methyl-[1,1′-biphenyl]-3-yl)methoxy)-2,3-dihydro-1H-inden-1-yl)amino)ethyl)acetamide], which IC50 is on record?
A: The IC50 was 379 nM.

Q: `CC(=O)NCCNC1CCc2cc(OCc3cccc(-c4ccc5c(c4)OCCO5)c3C)ccc21` (stereo not drawn) [Compound 16D, N-(2-((5-((3-(2,3-dihydrobenzo[b][1,4]dioxin-6-yl)-2-methylbenzyl)oxy)-2,3-dihydro-1H-inden-1-yl)amino)ethyl)acetamide] was tested. Which IC50 did it give?
A: The IC50 was 323 nM.
